Test results from patent US20240425480A1, “NOVEL PYRIDINE DERIVATIVE COMPOUND AS RON INHIBITOR” (LG CHEM, LTD., priority 2021, published 2024).

Legend:
RON = RON (Homo sapiens, UniProt Q04912); experiment: Inhibitory activity against RON, TR-FRET kinase assay; format: biochemical; conditions: TR-FRET enzyme assay
Description: In order to measure the inhibitory activity of each of the compounds of Examples against RON, the IC50 of each of the compounds was measured using Time-resolved fluorescence energy transfer (TR-FRET).
(§1) Specifically, the compound was prepared to a concentration of 1 mM in 100% DMSO and was diluted 10 times in a stepwise manner through 3-fold dilution. The compound (2 ul) diluted in a stepwise manner was added to a 96-well-plate containing 48 ul of a 1× kinase reaction buffer (50 mM HEPES (pH 7.4), 0.01% Tween-20, 5 mM DTT, 0.5 mM Na3VO4, 2 mM EGTA, 10 mM MgCl2).
The RON protein was diluted to a concentration of 49.3 nM in a RON storage buffer (50 mM Tris-HCl (pH 7.5), 150 mM NaCl, 0.5 mM EDTA, 0.02% Triton X-100), and then diluted again to a concentration of 0.4 nM in a 1×kinase reaction buffer. As a substrate cocktail, a RON-specific substrate mixed solution (40 uM ULight-labeled Poly GT, 100 nM ATP) was prepared at a concentration 2 times the final reaction concentration.
(§2) Thereafter, a 384-well-plate was prepared, and 2.5 μl of each of the diluted compounds of Examples was added to a corresponding well of experimental group wells, and 2.5 μl of a 4% DMSO solution was dispensed into high control wells and low control wells.
(§3) Thereafter, 2.5 μL of 0.4 nM RON was dispensed into each of the high control wells and the experimental group wells, and 2.5 μL of the 1× kinase reaction buffer was added to the low control wells, and all the wells were centrifuged at room temperature for 40 seconds at 1,000 RPM, and then incubated at room temperature for 20-30 minutes. Then, 5 μL of the substrate cocktail (2×) was dispensed into each well, and all the wells were centrifuged at room temperature for 40 seconds at 1,000 RPM, and then incubated at room temperature for 60 minutes. Thereafter, 5 μL of 30 mM EDTA was added to each well to terminate the reaction, and all the wells were then incubated again at room temperature for 5 minutes. Thereafter, 5 μL of a 4×phosphotyrosine antibody (Perkin Elmer) containing europium was added to each well, and all the wells were then incubated at room temperature for 60 minutes. After the incubation, the 384-well-plate was read with the Vison plate reader. In this case, the excitation wavelength was 340 nm, and the emission wavelength was 620 nm and 665 nm. The IC50 value of each compound of Examples was derived using the GraphPd Prism7 program.

cMET = cMET (Homo sapiens, UniProt P08581); experiment: Inhibitory activity against MET (cMET), TR-FRET kinase assay; format: biochemical; conditions: TR-FRET enzyme assay
cMET, sequence (P08581 25-1390): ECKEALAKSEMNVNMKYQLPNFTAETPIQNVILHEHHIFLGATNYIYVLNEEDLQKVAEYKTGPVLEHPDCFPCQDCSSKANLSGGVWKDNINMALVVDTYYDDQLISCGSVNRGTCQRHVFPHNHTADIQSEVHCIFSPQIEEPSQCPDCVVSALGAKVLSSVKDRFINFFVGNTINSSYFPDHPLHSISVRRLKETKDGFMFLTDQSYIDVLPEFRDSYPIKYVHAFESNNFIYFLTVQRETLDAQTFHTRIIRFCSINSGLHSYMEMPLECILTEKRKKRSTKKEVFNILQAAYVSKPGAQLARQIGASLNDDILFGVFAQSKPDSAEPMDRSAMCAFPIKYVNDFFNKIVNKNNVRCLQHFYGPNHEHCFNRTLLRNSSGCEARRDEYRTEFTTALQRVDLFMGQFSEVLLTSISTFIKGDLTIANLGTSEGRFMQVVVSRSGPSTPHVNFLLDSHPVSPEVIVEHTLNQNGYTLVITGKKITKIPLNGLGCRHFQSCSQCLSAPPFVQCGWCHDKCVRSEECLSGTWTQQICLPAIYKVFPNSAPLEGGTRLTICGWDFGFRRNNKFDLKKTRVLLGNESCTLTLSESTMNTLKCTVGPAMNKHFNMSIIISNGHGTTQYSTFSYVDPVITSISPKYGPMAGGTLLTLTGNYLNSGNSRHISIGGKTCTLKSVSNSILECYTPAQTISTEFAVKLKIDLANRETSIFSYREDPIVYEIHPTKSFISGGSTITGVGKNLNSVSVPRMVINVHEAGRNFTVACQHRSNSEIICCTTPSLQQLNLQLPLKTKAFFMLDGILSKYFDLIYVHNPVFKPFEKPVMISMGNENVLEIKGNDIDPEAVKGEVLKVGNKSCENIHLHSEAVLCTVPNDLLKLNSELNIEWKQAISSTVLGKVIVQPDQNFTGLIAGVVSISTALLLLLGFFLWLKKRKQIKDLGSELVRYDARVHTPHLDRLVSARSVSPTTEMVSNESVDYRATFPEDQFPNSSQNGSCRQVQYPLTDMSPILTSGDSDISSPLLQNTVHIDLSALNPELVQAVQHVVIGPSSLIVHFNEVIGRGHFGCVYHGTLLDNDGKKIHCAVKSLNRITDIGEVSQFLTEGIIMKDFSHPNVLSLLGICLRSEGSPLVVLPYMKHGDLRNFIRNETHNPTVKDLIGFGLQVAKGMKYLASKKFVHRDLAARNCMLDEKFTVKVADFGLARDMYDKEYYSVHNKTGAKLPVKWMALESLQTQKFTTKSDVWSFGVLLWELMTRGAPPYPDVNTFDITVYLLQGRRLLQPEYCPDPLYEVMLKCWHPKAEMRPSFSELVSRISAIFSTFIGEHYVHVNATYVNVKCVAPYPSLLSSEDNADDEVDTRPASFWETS
Description: In addition, in order to measure the enzyme activity inhibition for cMET, the evaluation was performed in the same manner as the enzyme activity inhibition measurement experiment for RON.
as §1, with “a 1×kinase” for “a 1× kinase”, “7.4), 0.05% BSA, 0.005%” for “7.4), 0.01%”, “Tween-20, 1” for “Tween-20, 5”, “mM MnCl2, 20” for “mM Na3VO4, 2 mM EGTA, 10”
The cMET protein was diluted to a concentration of 263 nM in a cMET storage buffer (50 mM Tris-HCl (pH 7.5), 150 mM NaCl, 0.05% Brij35, 1 mM DTT, 10% Glycerol), and then diluted again to a concentration of 2 nM in a 1×kinase reaction buffer. As a substrate cocktail, a MET-specific substrate mixed solution (5 uM TK peptide, 10 mM ATP) was prepared at a concentration 2 times the final reaction concentration.
as §2
as §3, with “of 2” for “of 0.4”, “nM cMET” for “nM RON”, “of 90” for “of 30”, “The […]” for “The IC50”

RON, sequence (Q04912 25-1400, species assumed): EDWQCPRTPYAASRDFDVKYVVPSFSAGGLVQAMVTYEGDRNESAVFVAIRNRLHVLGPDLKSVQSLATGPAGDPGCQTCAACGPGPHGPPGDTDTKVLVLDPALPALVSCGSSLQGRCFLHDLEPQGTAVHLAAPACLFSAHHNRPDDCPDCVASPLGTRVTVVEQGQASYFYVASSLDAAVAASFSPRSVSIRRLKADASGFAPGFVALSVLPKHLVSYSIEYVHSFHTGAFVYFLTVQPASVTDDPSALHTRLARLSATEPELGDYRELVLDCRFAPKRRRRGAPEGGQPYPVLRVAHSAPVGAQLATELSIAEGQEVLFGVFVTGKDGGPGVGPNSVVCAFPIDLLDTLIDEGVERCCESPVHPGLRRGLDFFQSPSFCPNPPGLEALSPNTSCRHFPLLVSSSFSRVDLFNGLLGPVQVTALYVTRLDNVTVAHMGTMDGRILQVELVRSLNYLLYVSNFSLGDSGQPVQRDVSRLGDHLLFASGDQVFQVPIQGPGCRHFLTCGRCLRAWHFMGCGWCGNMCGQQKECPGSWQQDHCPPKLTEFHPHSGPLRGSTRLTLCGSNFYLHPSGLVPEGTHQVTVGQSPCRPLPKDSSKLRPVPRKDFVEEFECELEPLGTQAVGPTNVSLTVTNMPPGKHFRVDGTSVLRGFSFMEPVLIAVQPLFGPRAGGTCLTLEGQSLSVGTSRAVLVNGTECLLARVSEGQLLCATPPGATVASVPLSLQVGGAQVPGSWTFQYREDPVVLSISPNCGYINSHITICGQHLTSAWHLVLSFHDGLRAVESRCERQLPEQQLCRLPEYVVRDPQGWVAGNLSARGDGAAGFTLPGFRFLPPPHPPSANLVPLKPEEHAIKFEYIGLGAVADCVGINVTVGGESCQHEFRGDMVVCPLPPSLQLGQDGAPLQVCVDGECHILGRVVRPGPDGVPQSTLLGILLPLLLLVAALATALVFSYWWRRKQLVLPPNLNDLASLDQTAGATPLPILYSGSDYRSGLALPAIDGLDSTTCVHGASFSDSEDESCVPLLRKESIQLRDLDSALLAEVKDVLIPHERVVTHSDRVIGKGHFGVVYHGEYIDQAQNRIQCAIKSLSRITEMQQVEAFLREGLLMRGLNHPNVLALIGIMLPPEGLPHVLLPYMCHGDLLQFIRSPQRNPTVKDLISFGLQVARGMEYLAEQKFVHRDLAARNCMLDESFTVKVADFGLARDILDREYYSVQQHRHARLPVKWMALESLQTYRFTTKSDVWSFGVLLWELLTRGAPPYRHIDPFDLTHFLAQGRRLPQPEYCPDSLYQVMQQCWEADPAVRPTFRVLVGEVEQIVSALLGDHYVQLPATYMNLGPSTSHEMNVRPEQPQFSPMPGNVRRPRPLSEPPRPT

Row | Structure (SMILES) | IC50 (RON) [nM] | IC50 (cMET) [nM]
1 | Nc1nccc(Oc2ccc(NC(=O)c3cnn(-c4nc(-c5ccccc5)cs4)c3C(F)(F)F)cc2F)c1Cl [Example 3, N-(4-((2-amino-3-chloropyridin-4-yl)oxy)-3-fluorophenyl)-1-(4-phenylthiazol-2-yl)-5-(trifluoromethyl)-1H-pyrazole-4-carboxamide] | > 5000 | > 5000
2 | Nc1nccc(Oc2ccc(NC(=O)c3cnn(-c4cncnc4)c3C(F)(F)F)cc2F)c1Cl [Example 6, N-(4-((2-amino-3-chloropyridin-4-yl)oxy)-3-fluorophenyl)-1-(pyrimidin-5-yl)-5-(trifluoromethyl)-1H-pyrazole-4-carboxamide] | 50 to 500 | > 5000
3 | Nc1nccc(Oc2ccc(NC(=O)c3cnn(-c4ncccc4F)c3C(F)(F)F)cc2F)c1Cl [Example 8, N-(4-((2-amino-3-chloropyridin-4-yl)oxy)-3-fluorophenyl)-1-(3-fluoropyridin-2-yl)-5-(trifluoromethyl)-1H-pyrazole-4-carboxamide] | < 50 | 500 to 5000
4 | Cc1cccnc1-n1ncc(C(=O)Nc2ccc(Oc3ccnc(N)c3Cl)c(F)c2)c1C(F)(F)F [Example 9, N-(4-((2-amino-3-chloropyridin-4-yl)oxy)-3-fluorophenyl)-1-(3-methylpyridin-2-yl)-5-(trifluoromethyl)-1H-pyrazole-4-carboxamide] | < 50 | 500 to 5000
5 | Nc1nccc(Oc2ccc(NC(=O)c3cnn(-c4ncccc4Cl)c3C(F)(F)F)cc2F)c1Cl [Example 10, N-(4-((2-amino-3-chloropyridin-4-yl)oxy)-3-fluorophenyl)-1-(3-chloropyridin-2-yl)-5-(trifluoromethyl)-1H-pyrazole-4-carboxamide] | < 50 | 500 to 5000
6 | Nc1nccc(Oc2ccc(NC(=O)c3cnn(-c4ncccc4C(F)(F)F)c3C(F)(F)F)cc2F)c1Cl [Example 11, N-(4-((2-amino-3-chloropyridin-4-yl)oxy)-3-fluorophenyl)-5-(trifluoromethyl)-1-(3-(trifluoromethyl)pyridin-2-yl)-1H-pyrazole-4-carboxamide] | 50 to 500 | 500 to 5000
7 | Nc1nccc(Oc2ccc(NC(=O)c3cnn(-c4ccc(F)cn4)c3C(F)(F)F)cc2F)c1Cl [Example 13, N-(4-((2-amino-3-chloropyridin-4-yl)oxy)-3-fluorophenyl)-1-(5-fluoropyridin-2-yl)-5-(trifluoromethyl)-1H-pyrazole-4-carboxamide] | 50 to 500 | > 5000
8 | Nc1nccc(Oc2ccc(NC(=O)c3cnn(-c4cc(Cl)ccn4)c3C(F)(F)F)cc2F)c1Cl [Example 14, N-(4-((2-amino-3-chloropyridin-4-yl)oxy)-3-fluorophenyl)-1-(4-chloropyridin-2-yl)-5-(trifluoromethyl)-1H-pyrazole-4-carboxamide] | 50 to 500 | > 5000
9 | COc1cccnc1-n1ncc(C(=O)Nc2ccc(Oc3ccnc(N)c3Cl)c(F)c2)c1C(F)(F)F [Example 15, N-(4-((2-amino-3-chloropyridin-4-yl)oxy)-3-fluorophenyl)-1-(3-methoxypyridin-2-yl)-5-(trifluoromethyl)-1H-pyrazole-4-carboxamide] | 50 to 500 | 500 to 5000
10 | Nc1nccc(Oc2ccc(NC(=O)c3cnn(-c4cccnn4)c3C(F)(F)F)cc2F)c1Cl [Example 20, N-(4-((2-amino-3-chloropyridin-4-yl)oxy)-3-fluorophenyl)-1-(pyridazin-3-yl)-5-(trifluoromethyl)-1H-pyrazole-4-carboxamide] | < 50 | 500 to 5000

Further lines, results first:

Row | IC50 (RON) [nM] | IC50 (cMET) [nM] | Structure (SMILES)
11 | 50 to 500 | 500 to 5000 | CCc1c(C(=O)Nc2ccc(Oc3ccnc(N)c3Cl)c(F)c2)cnn1-c1cncnc1 [Example 1, N-(4-((2-amino-3-chloropyridin-4-yl)oxy)-3-fluorophenyl)-5-ethyl-1-(pyrimidin-5-yl)-1H-pyrazole-4-carboxamide]
12 | < 50 | 500 to 5000 | Nc1nccc(Oc2ccc(NC(=O)c3cnn(-c4ccccn4)c3C(F)(F)F)cc2F)c1Cl [Example 2, N-(4-((2-amino-3-chloropyridin-4-yl)oxy)-3-fluorophenyl)-1-(pyridin-2-yl)-5-(trifluoromethyl)-1H-pyrazole-4-carboxamide]
13 | 500 to 5000 | > 5000 | CCc1c(C(=O)Nc2ccc(Oc3ccnc(N)c3Cl)c(F)c2)cnn1-c1ccncc1 [Example 4, N-(4-((2-amino-3-chloropyridin-4-yl)oxy)-3-fluorophenyl)-5-ethyl-1-(pyridin-4-yl)-1H-pyrazole-4-carboxamide]
14 | 50 to 500 | 500 to 5000 | CCc1c(C(=O)Nc2ccc(Oc3ccnc(N)c3Cl)c(F)c2)cnn1-c1cccnc1 [Example 5, N-(4-((2-amino-3-chloropyridin-4-yl)oxy)-3-fluorophenyl)-5-ethyl-1-(pyridin-3-yl)-1H-pyrazole-4-carboxamide]
15 | 50 to 500 | > 5000 | Cc1c(C(=O)Nc2ccc(Oc3ccnc(N)c3Cl)c(F)c2)cnn1-c1cncnc1 [Example 7, N-(4-((2-amino-3-chloropyridin-4-yl)oxy)-3-fluorophenyl)-5-methyl-1-(pyrimidin-5-yl)-1H-pyrazole-4-carboxamide]
16 | 50 to 500 | 500 to 5000 | Cc1ccnc(-n2ncc(C(=O)Nc3ccc(Oc4ccnc(N)c4Cl)c(F)c3)c2C(F)(F)F)c1 [Example 12, N-(4-((2-amino-3-chloropyridin-4-yl)oxy)-3-fluorophenyl)-1-(4-methylpyridin-2-yl)-5-(trifluoromethyl)-1H-pyrazole-4-carboxamide]
17 | 50 to 500 | > 5000 | Cc1ccc(-n2ncc(C(=O)Nc3ccc(Oc4ccnc(N)c4Cl)c(F)c3)c2C(F)(F)F)nc1 [Example 16, N-(4-((2-amino-3-chloropyridin-4-yl)oxy)-3-fluorophenyl)-1-(5-methylpyridin-2-yl)-5-(trifluoromethyl)-1H-pyrazole-4-carboxamide]
18 | 50 to 500 | 500 to 5000 | Cc1cccc(-n2ncc(C(=O)Nc3ccc(Oc4ccnc(N)c4Cl)c(F)c3)c2C(F)(F)F)n1 [Example 17, N-(4-((2-amino-3-chloropyridin-4-yl)oxy)-3-fluorophenyl)-1-(6-methylpyridin-2-yl)-5-(trifluoromethyl)-1H-pyrazole-4-carboxamide]
19 | 50 to 500 | 500 to 5000 | Nc1nccc(Oc2ccc(NC(=O)c3cnn(-c4cccnc4)c3C(F)(F)F)cc2F)c1Cl [Example 18, N-(4-((2-amino-3-chloropyridin-4-yl)oxy)-3-fluorophenyl)-1-(pyridin-3-yl)-5-(trifluoromethyl)-1H-pyrazole-4-carboxamide]
20 | 50 to 500 | 500 to 5000 | Nc1nccc(Oc2ccc(NC(=O)c3cnn(-c4ccncc4)c3C(F)(F)F)cc2F)c1Cl [Example 19, N-(4-((2-amino-3-chloropyridin-4-yl)oxy)-3-fluorophenyl)-1-(pyridin-4-yl)-5-(trifluoromethyl)-1H-pyrazole-4-carboxamide]
